# Ends that are not written are not given here. * marks the point of attachment. Palmitoyl = CCCCCCCCCCCCCCCC(=O)*
# Columns and labels:
# [1] = Overall functional screening of tri-epitope molecules
# Description: The designed immunogens are synthesized by chemical synthesis methods. Firstly, the most probable structures according to the computer alignment and in theory are synthesized, and then functionally screened in vitro. The screening in vitro comprises: inducing the Th1 activation of peripheral blood mononuclear cells, inducing the HBV-specific CTL, inhibiting HBsAg and HBeAg on HepG2.2.1.5 cells with polypeptide antigen-specific CTL, etc. The designed structures are optimized, improved and synthesized in the next cycle bused on the results of functional tests in vitro. The structures selected out in the in vitro tests are further screened in in vivo tests, the screening comprising: inducing the Th1 activation in Balb/C mice, inhibiting virus replication in HBV transgenic mice, conducting acute toxicity tests in mice, etc. […] Among tri-epitope molecules of different epitope combinations, εPA44 achieves the best effect (see Table 4). The in vivo and in vitro tests indicate that the convalent modification by palmitic acid gives better effects among various chemical modifications.
# HBV-DNA transgenic mice = assay: HBV transgenic mice: IFN-γ secreting cells, ELI-SPOT; format: in vivo; conditions: 30th day after end of immunization
# Procedure: (§1) The levels of cytokines such as IFN-γ, IL-4, etc. in supernatant were measured by the ELISA method, and the activity of the test drug (CH3(CH2)14COKSSQYIKANSKFIGITEAAASIVSPFIPLLGGGDPRVRGLYFPA) (SEQ ID NO:5) for inducing the differentiation of T cells into Th1/Th2 type was analyzed. […] The expression frequency of IFN-γ secreting cells in peripheral blood lymphocytes was measured by the ELI-SPOT method in said supernatant. […] On the 10th, 20th and 30th day after the end of the three immunizations, bloods were removed, serum isolated, and the contents of HBsAg and HBV-DNA in the serum were separately measured by the ELISA method and quantitative PCR method.
# The expression frequency of IFN-γ secreting cells in peripheral blood lymphocytes was measured by the ELI-SPOT method.
# [2] = tested on: hepatitis B surface antigen (HBsAg) in HBV transgenic mice; assay: HBV transgenic mice: HBsAg in serum, ELISA; format: in vivo; conditions: 10th, 20th, 30th day after three immunizations, 10-1000 U/mouse
# Procedure: as §1
# [3] = tested on: HBV DNA in HBV transgenic mice; assay: HBV transgenic mice: HBV DNA in serum, quantitative PCR; format: in vivo; conditions: 10th, 20th, 30th day after three immunizations, 10-1000 U/mouse
# Procedure: as §1
# [4] = Stability in different solution systems (RP-HPLC); format: physicochemical
# Description: εPA44 was soluble and stable in DMSO, but poorly soluble and stable in other solutions (see Table 5). Thus, DMSO was used as the mobile phase for SEC.
# Balb/c mice = assay: Th1 activation, serum Th1/Th2 cytokines by ELISA; format: in vivo; conditions: serum 3 weeks after immunization
# Procedure: Balb/c mice (both male and female) of 2-3 Months old were divided into 8 groups, and were immunized with εPA44 at both postpede palmas once a week for three times at different doses: 0.001 nmol, 0.01 nmol, 0.1 nmol, 0.5 nmol, 1 nmol, 10 nmol, 20 nmol, and 40 nmol respectively. 3 weeks after immunization, the mice were bled by removing their eyeballs and serums were collected. Th1/Th2 cytokines were tested by ELISA.
# [5] = tested on: human peripheral blood mononuclear cells (PBMCs); assay: Proliferation of human PBMCs from normal persons, 3H-TdR; format: cell-based; conditions: 0.1 μg, 1 μg and 10 μg/ml with IL-2
# Procedure: Anticoagulant peripheral blood was collected from normal persons under sterile conditions, PBMCs were isolated by conventional Ficoll-Hypaque density gradient centrifugation and were cultured in RPMI1640 culture media (containing 10% calf serum, 100 u/ml penicillin-streptomycin, L-glutamine) in vitro on 24-well culture plates at the cell concentration of 10^6/ml. Blank control group, test group and Pre-S(2) control group were included, to which IL-2 (30 IU/ml) and test drug (0.1 μg/ml, 1 μg/ml, 10 μg/ml) were added. After the cells were cultured for 6 days, IL-2 and the test drug were added at the same dose to stimulate the cells again, and then 3H-TdR (1 uCi/ml) was added. After the cells were further cultured for 18 hours, they were collected and tested by liquid scintillation.
# [6] = tested on: T2 cells, E6 cells, and HepG2.2.15 cells; assay: HBV-specific effective CTL from hepatitis patients' PBMC, cytotoxicity; format: cell-based, human
# Procedure: Acute and chronic hepatitis blank control groups, acute hepatitis+test drug group and chronic hepatitis+test drug group were included. The PBMC's from the patients were cultured in vitro and stimulated repetitively to generate antigen-specific effective CTL cells and amplified their number. Then they were used to cytotoxically kill peptide antigen pre-coated T2 cells, E6 cells, and HepG2.2.15 cells.
# [7] = Isoelectric point, ampholyte pH gradient isoelectric focusing; format: physicochemical; conditions: 8N urea, TritonX-114
# Procedure: Supported ampholyte pH gradient isoelectric focusing was employed. Pretreatment: 8N urea and 2% TritonX-114. Urea at the corresponding concentration and 0.5% TritonX-114 were also added to polyacrylamide gel. Conventional Coomassie brilliant blue was used for dyeing.
# [8] = pI stated in the formulation description; format: physicochemical; conditions: stated without method in formulation example 39
substance,measurement,setting,value
"K(Palmitoyl)SSQYIKANSKFIGITEAAAFLPSDFFPSVGGGDPRVRGLYFPA-OH [SEQ ID NO:1, CH3(CH2)14COKSSQYIKANSKFIGITEAAAFLPSDFFPSVGGGDPRVRGLYFPA]",effect among tri-epitope molecules of different epitope combinations,[1],best effect
same,expression frequency of IFN-γ secreting cells in peripheral blood lymphocytes,HBV-DNA transgenic mice; 10-1000 U/mouse,increased with the increase of the immunization dose
same,highest expression frequency of IFN-γ secreting cells,HBV-DNA transgenic mice; IFN-α2b at 15000 U/mouse,3660 IFN-γ secreting cells/10^6 PBMC
same,HBsAg in the serum,[2],decreased in a manner of dose-dependence and time-dependence
same,"HBV-DNA in the serum (copy number, replication level)",[3],obviously decreased in a manner of dose-dependence and time-dependence
same,Stability,[4]; 50% Acetonitrile-0.1% TFA,Unstable
same,Stability,[4]; 50% Ethanol-10 mmol/L HCl,Unstable
same,Stability,[4]; 50% Ethanol-10 mmol/L phosphoric acid,Unstable
same,Stability,[4]; DMSO,Stable*
same,dose inducing the generation of IFN-γ and IL-2,Balb/c mice,0.01 nmol
same,proliferation of human PBMCs,[5],stimulated the proliferation of human PBMCs in a manner of dose dependence
same,target cell-specific lysis rate,[6]; PBMCs from acute hepatitis patient in convalescent phase,up to 68.6%
same,target cell-specific lysis rate,[6]; PBMCs from chronic hepatitis patient,up to 42.6%
same,specific killing of target cells,[6]; PBMCs of hepatitis patients,specifically kill aforesaid three target cell lines
same,isoelectric point,[7],7.2 pH
same,pI,[8],8.1

# — patent US8591908B2, “Immunogen for preparation of therapeutic vaccines or drugs for treatment of hepatitis B and the producing method and use thereof” (Institute of Immunology, PLA, priority 2002, dated 2013)
